From paper PMC8618058, “A Phenylfurocoumarin Derivative Reverses ABCG2-Mediated Multidrug Resistance In Vitro and In Vivo” (International Journal of Molecular Sciences, 2021)

Target: T1, ABCG2 (Homo sapiens, UniProt Q9UNQ0)
T1 construct: total membranes of ABCG2-expressing High Five insect cells
T1 sequence (Q9UNQ0 1-655): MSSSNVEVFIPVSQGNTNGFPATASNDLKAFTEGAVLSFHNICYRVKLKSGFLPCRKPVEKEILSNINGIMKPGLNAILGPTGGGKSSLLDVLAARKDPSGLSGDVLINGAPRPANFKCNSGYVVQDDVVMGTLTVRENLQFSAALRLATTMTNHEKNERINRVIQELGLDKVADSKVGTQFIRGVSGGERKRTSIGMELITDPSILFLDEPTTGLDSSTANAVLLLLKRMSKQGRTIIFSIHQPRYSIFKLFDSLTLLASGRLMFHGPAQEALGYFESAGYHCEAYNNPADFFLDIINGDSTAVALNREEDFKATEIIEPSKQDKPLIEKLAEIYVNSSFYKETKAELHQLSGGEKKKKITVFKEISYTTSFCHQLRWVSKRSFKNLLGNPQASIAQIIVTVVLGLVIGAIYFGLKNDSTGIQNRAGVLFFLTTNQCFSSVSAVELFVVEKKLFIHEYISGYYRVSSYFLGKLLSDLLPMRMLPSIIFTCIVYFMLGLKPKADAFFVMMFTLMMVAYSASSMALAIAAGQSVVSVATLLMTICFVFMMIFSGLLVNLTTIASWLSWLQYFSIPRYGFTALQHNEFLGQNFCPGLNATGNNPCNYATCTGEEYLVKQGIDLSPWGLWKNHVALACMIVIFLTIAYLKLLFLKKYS
Assay: stimulation of vanadate-sensitive ATPase activity in ABCG2-expressing insect cell membranes; also PhA efflux inhibition in HCT-116/BCRP cells
Type: biochemical

For `COc1ccc(-c2c3occc3c(OC[C@H]3OC3(C)C)c3ccc(=O)oc23)cc1OC` [PFC, (R)-9-(3,4-dimethoxyphenyl)-4-((3,3-dimethyloxiran-2-yl)methoxy)-7H-furo [3,2-g]chromen-7-one], which EC50 is on record?
Its EC50 is 3.8 ± 0.64 nM.
